Measurements published in US7833795B2, “Assessment of cardiovascular risk using isoprostane biomarkers and COX-2 selective inhibitors” (The Trustees of the University of Pennsylvania, priority 2004, dated 2010).
Read-outs that look alike come from different tables or passages of the source.

Legend:
COX-1 = COX-1 (Homo sapiens, UniProt P23219); settings: in vivo
Description: (§1) Study Design: This randomized, double-blind, placebo-controlled protocol was approved by the Institutional Review Board of the University of Pennsylvania Health System and by the Advisory Council of the General Clinical Research Center (University of Pennsylvania, Philadelphia). Written informed consent was obtained from all study volunteers. […] Routine hematology, biochemistry, and urinalysis were assessed at time of screening and at 24 hours after administration of the drugs on completion of the study.
(§2) Measurements were performed immediately before the administration of drug (0 hrs) and 4 hours thereafter. […] A subset of the volunteers (n=5) progressed through the entire protocol on five occasions, each separated by two weeks, to assess intraindividual variability in drug response in five replicates.
(§3) Statistical analysis: The primary response variables were: i) ex vivo COX-2 inhibition, expressed as the ratio of postdrug to predrug plasma PGE2; ii) ex vivo COX-1 inhibition, expressed as the ratio of postdrug to predrug serum TxB2; iii) urinary PGI-M inhibition, expressed as the ratio of concentration post drug to post placebo administration; iv) urinary Tx-M inhibition, expressed as the ratio of concentration post drug to post placebo administration; and v) plasma drug concentrations four hours post drug administration. […]

COX-2 = COX-2 (Homo sapiens, UniProt P35354); settings: in vivo
Description: as §1, §2, §3

PGI2 biosynthesis = test: Urinary 2,3-dinor-6-keto PGF1α (PGI-M) in volunteers; assay type: in vivo, human; settings: single dose (rofecoxib 25 mg, celecoxib 200 mg), 4 hours
Text: (§4) Written informed consent was obtained from all study volunteers.
(§5) The coefficients of variation for both assays were <10%.
(§6) All variables were log transformed to approximate normality. Three extreme outlying datapoints were removed.

TxA2 formation = test: Urinary 11-dehydro TxB2 (Tx-M) in volunteers; assay type: in vivo, human
Text: as §4, §5, §6

[1] = Plasma drug concentrations by LC tandem MS; assay type: in vivo, human; settings: for concentration at 4 h: human, plasma, 4 hours after dosing, single dose (rofecoxib 25 mg, celecoxib 200 mg)
[2] = patients receiving rofecoxib (25 mg/day), as early as one month; cited from earlier work

Chain of COX-2 (P35354 18-604): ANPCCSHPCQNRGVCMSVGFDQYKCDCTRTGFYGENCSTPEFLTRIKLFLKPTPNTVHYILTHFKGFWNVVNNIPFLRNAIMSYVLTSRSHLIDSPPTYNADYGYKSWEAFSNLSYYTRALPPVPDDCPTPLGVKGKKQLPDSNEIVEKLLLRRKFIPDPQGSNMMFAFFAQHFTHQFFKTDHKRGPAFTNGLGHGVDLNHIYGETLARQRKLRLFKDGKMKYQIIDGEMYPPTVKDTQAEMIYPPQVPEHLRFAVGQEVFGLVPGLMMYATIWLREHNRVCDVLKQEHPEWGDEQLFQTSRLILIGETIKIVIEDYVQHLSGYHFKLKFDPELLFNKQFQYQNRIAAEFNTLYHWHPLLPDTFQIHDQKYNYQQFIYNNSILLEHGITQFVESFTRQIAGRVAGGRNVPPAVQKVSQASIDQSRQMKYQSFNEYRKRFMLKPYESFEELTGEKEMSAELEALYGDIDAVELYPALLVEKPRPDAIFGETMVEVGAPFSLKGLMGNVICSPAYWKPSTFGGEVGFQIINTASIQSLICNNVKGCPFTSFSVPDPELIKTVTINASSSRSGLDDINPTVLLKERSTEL
Chain of COX-1 (P23219 24-599): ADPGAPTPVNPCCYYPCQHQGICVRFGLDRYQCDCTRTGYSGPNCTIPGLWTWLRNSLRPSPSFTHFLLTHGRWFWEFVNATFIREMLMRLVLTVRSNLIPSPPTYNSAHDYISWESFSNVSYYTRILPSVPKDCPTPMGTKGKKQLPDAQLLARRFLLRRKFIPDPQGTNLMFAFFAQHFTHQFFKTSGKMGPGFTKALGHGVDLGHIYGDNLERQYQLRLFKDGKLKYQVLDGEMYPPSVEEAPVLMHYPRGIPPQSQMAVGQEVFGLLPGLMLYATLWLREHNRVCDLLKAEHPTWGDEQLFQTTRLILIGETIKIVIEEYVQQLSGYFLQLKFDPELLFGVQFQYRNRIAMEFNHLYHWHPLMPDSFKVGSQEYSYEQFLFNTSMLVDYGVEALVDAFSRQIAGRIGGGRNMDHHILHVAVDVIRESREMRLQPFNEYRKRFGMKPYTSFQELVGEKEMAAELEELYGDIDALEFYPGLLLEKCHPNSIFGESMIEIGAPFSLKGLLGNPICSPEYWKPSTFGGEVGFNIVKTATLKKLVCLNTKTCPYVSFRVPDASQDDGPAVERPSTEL

## CS(=O)(=O)c1ccc(C2=C(c3ccccc3)C(=O)OC2)cc1 [rofecoxib]
COX-1
  COX-1 derived serum TxB2: failed to inhibit significantly
COX-2
  degree of inhibition of COX-2 dependent PGE2 formation ex vivo: 44.8%
PGI2 biosynthesis
  urinary PGI-M compared to placebo: depressed urinary PGI-M
TxA2 formation; rofecoxib 25 mg
  COX-1 inhibition in vivo (urinary Tx-M) in Pro17Leu variant of COX-1: absence of COX-1 inhibition in vivo
TxA2 formation; single dose (rofecoxib 25 mg, celecoxib 200 mg), 4 hours
  excretion of urinary Tx-M compared to placebo: not excretion of urinary Tx-M
[1]; read-out: plasma drug concentration, median
  concentration at 4 h: 215 ng/mL
[1]; read-out: plasma drug concentration, range
  concentration at 4 h: 115 to 658 ng/mL
[1]; rofecoxib 25 mg, 4 hours
  drop in plasma concentration per unit increase in BMI: about 2%
[2]
  elevation of blood pressure: 3-4 mm Hg
